The NIST ThermoML archive (doi:10.1016/j.jct.2015.05.024)

Assay: xn = mol fraction of the nth substance listed
Settings: 100 kPa, Liquid, Vibrating tube method

OCCOCCOCCO [triethylene glycol] + O
mass density [kg/m3]
Settings | 323.15 K | 328.15 K | 333.15 K
x1 = 0.0107 | – | 996.693 | 994.065
x1 = 0.02047 | – | 1005.64 | 1002.89
x1 = 0.03972 | – | 1020.67 | 1017.67
x1 = 0.04979 | – | 1027.35 | 1024.24
x1 = 0.06996 | – | 1038.74 | 1035.42
x1 = 0.09424 | – | 1049.58 | 1046.06
x1 = 0.1481 | – | 1065.82 | 1062.02
x1 = 0.2006 | – | 1075.2 | 1071.28
x1 = 0.2502 | – | 1080.82 | 1076.84
x1 = 0.2988 | 1088.45 | 1084.52 | 1080.53
x1 = 0.3492 | 1091.15 | 1087.21 | 1083.23
x1 = 0.3925 | 1092.88 | 1088.93 | 1084.95
x1 = 0.4502 | 1094.61 | 1090.66 | 1086.7
x1 = 0.4877 | 1095.48 | 1091.55 | 1087.58
x1 = 0.5004 | 1095.75 | 1091.81 | 1087.85
x1 = 0.5739 | 1097.01 | 1093.08 | 1089.13
x1 = 0.58 | 1097.09 | 1093.16 | 1089.21
x1 = 0.6465 | 1097.92 | 1093.99 | 1090.05
x1 = 0.651 | 1097.96 | 1094.04 | 1090.1
x1 = 0.7008 | 1098.44 | 1094.53 | 1090.59
x1 = 0.7471 | 1098.82 | 1094.91 | 1090.97
x1 = 0.7677 | 1098.97 | 1095.06 | 1091.13
x1 = 0.82 | 1099.31 | 1095.4 | 1091.47
x1 = 0.8623 | 1099.56 | 1095.64 | 1091.71
x1 = 0.8792 | 1099.64 | 1095.73 | 1091.81
x1 = 0.8975 | 1099.74 | 1095.83 | 1091.9
x1 = 0.9203 | 1099.85 | 1095.94 | 1092.01
x1 = 0.9514 | 1100 | 1096.09 | 1092.16
x1 = 0.9692 | 1100.08 | 1096.17 | 1092.24
x1 = 1 | 1100.22 | 1096.3 | 1092.38
